According to patent US20240400547A1, “2,6-PIPERIDINEDIONE COMPOUND AND APPLICATION THEREOF” (MEDSHINE DISCOVERY INC., priority 2021, published 2024):
Structures can show the parent of a compound that is named as a salt.

Molecular target: T1, IRAK4 (Homo sapiens, UniProt Q9NWZ3)
T1 construct: expressed in transfected cells; host or cells: K562 IRAK4-HiBiT cells
T1 sequence (Q9NWZ3 1-460): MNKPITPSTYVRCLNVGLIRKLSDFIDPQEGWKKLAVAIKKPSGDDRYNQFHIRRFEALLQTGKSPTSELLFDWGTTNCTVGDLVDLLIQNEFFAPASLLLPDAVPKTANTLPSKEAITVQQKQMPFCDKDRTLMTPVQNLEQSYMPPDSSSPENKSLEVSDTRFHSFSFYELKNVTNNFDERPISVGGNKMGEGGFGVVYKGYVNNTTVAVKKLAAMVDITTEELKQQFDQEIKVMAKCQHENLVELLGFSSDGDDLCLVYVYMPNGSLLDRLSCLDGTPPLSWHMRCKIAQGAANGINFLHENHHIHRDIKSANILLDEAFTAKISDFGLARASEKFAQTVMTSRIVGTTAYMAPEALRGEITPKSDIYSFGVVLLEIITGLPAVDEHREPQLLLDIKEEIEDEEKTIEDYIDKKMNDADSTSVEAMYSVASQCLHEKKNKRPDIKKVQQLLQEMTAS
Experiment: Target protein degradation in K562 IRAK4-HiBiT cells (Nano-Glo HiBiT)
Assay type: cell-based
Details: 16 to 18 hours; for Dmax: read-out: Maximum degradation rate
Experimental: Experimental objective: The experiment aims to evaluate the degradation effect of the test compounds on the target protein IRAK4 in K562 IRAK4-HiBiT cells.
• Cells: K562 IRAK4-HiBiT cells • Culture medium: RPMI 1640+10% fetal bovine serum+2 mM glutamine+1 mM sodium pyruvate+penicillin/streptomycin. • Positive control: 1000 nM; negative control: 0.1% DMSO.
• (1). The powder of the compound to be tested was dissolved in DMSO to a storage concentration of 10 mM. A total of 9 μL of the 10 mM of the compound to be tested was manually pipetted into the 1st and 13th columns of the LDV plate using a pipettor; • (2). A volume of 6 μL of DMSO was added to columns 2-12 and 14-24 using a Multidrop Combi; • (3). A 3-fold dilution of the test compounds (3 μL+6 μL) was performed using Bravo, for columns 1-11 and 13-23; • (4). According to the plate layout, 25 nL of compound solution (columns 1-24 of the LDV plate) was transferred to the experimental plate using Echo; • (5) 25 nL of the 1 mM positive control solution was transferred to the assay plate as a 100% degradation control (i.e. LC, HPE), and 25 nL of DMSO was transferred to the assay plate as a 0% control (i.e. HC, ZPE).
• (1) The culture medium was discarded, and the cells were washed once with DPBS, digested with trypsin, counted, and prepared into a cell suspension of […]. • (2) Using the MultiDrop Combi at a medium speed, 25 μL/well of the cell suspension was added to the experimental plate containing the test compounds; • (3) The experimental plate containing cells was returned to the incubator and cultured for 16 to 18 hours at 37° C. and 5% CO2.
• (1). Using the MultiDrop Combi at a high speed, 25 μL/well of the assay reagent (NanoGlo lytic solution+substrate+LgBit protein) was added to the assay plate, followed by shaking for 10 minutes; • (2) The plate was centrifuged at 2000 rpm for 1 minute to remove any bubbles; • (3) Readings were obtained by using an Envision, US Luminescence reader.
To calculate the degradation rate (DR) of the test compounds, the following formula is used: IR (%)=(RLU vehicle control−RLU compound)/(RLU vehicle control−RLU positive control)×100%. The solvent control refers to the blank control. The degradation rates of compounds at different concentrations were calculated in Excel, and then XLFit software was used to plot inhibition curves and calculate relevant parameters, including minimum degradation rate, maximum degradation rate, and DC50.

DC50 | Dmax | SMILES
2.53 nM | 105% | O=C1CCC(c2noc3cc(NC(=O)CN4CCN(C[C@H]5CC[C@H](n6cc(NC(=O)c7coc(-c8ccnc(NCC9CC9)c8)n7)c(C(F)F)n6)CC5)CC4)ccc23)C(=O)N1 (stereo partly drawn) [Hydrochloride of WX025]
2.11 nM |  | O=C1CCC(c2noc3c(NC(=O)CN4CCN(C[C@H]5CC[C@H](n6cc(NC(=O)c7coc(-c8ccnc(NCC9CC9)c8)n7)c(C(F)F)n6)CC5)CC4)cccc23)C(=O)N1 (stereo partly drawn) [Hydrochloride of WX028]
9.6 nM | 105% | O=C1CCC(c2coc3ccc4c(NC(=O)CN5CCN(C[C@H]6CC[C@H](n7cc(NC(=O)c8coc(-c9ccnc(NCC%10CC%10)c9)n8)c(C(F)F)n7)CC6)CC5)cccc4c23)C(=O)N1 (stereo partly drawn) [Trifluoroacetate of WX011]

The next lines start with the molecule.

SMILES | DC50 | Dmax
CC(C)(O)c1cc2nc(C3CCC(CN4CCN(CC(=O)Nc5cccc6c5ccc5onc(C7CCC(=O)NC7=O)c56)CC4)CC3)sc2cc1NC(=O)c1cccc(C(F)(F)F)n1 (stereo not drawn) [Formate of WX017] | 4 nM | 73.9%
CC(C)(O)c1cc2nc([C@H]3CC[C@H](CN4CCN(CC(=O)Nc5ccc6c(ccc7onc(C8CCC(=O)NC8=O)c76)c5)CC4)CC3)sc2cc1NC(=O)c1cccc(C(F)(F)F)n1 (stereo partly drawn) [Formate of WX020] | 29.9 nM | 75.1%
CC(C)(O)c1cc2nc([C@H]3CC[C@H](CN4CCN(CC(=O)Nc5ccc6c(C7CCC(=O)NC7=O)noc6c5)CC4)CC3)sc2cc1NC(=O)c1cccc(C(F)(F)F)n1 (stereo partly drawn) [Formate of WX026] | 0.78 nM | 80.3%
O=C1CCC(c2coc3cc(NC(=O)CN4CCN(C[C@H]5CC[C@H](N6CC(NC(=O)c7coc(-c8ccnc(NCC9CC9)c8)n7)C(C(F)F)N6)CC5)CC4)ccc23)C(=O)N1 (stereo partly drawn) [Hydrochloride of WX002] | 13.5 nM | 100%
O=C1CCC(c2noc3ccc4c(NC(=O)C(F)(F)C5CCN(CC6CCC(n7cc(NC(=O)c8coc(-c9ccnc(NCC%10CC%10)c9)n8)c(C(F)F)n7)CC6)CC5)cccc4c23)C(=O)N1 (stereo not drawn) [Hydrochloride of WX018] | 7.91 nM | 119%
